According to ChEMBL document CHEMBL3813674 (Medchemcomm, 2016):
In brackets after ≈: the same amount, converted by molar mass.

Tests used:
Format in all cases: physicochemical
[1] = Solubility of the compound in ChCl-P solvent at HBA:HBD 1:4 molar ratio and 37 degC measured after 24 hrs by HPLC analysis
[2] = Solubility of the compound in ChCl-LA1 solvent at HBA:HBD 1:3 molar ratio and 37 degC measured after 24 hrs by HPLC analysis
[3] = Half life of compound in ChCl-P solvent at 2.5 mg by HPLC method
[4] = Solubility of the compound in ChCl-GA1 solvent at 37 degC measured after 24 hrs by HPLC analysis
[5] = Solubility of the compound in ChCl-LA2 solvent at 37 degC measured after 24 hrs by HPLC analysis
[6] = Solubility of the compound in ChCl-LA1 solvent at 37 degC measured after 24 hrs by HPLC analysis
[7] = Solubility of the compound in 1,2-propanediol at 37 degC measured after 24 hrs by HPLC analysis
[8] = Solubility of the compound in ChCl-LA1 solvent at HBA:HBD 1:2 molar ratio and 37 degC measured after 24 hrs by HPLC analysis
[9] = Solubility of the compound in levulinic acid at 37 degC measured after 24 hrs by HPLC analysis
[10] = Solubility of the compound in ChCl-MA1 solvent at 37 degC measured after 24 hrs by HPLC analysis
[11] = Solubility of the compound in ChCl-P solvent at HBA:HBD 1:2 molar ratio and 37 degC measured after 24 hrs by HPLC analysis
[12] = Half life of compound in water at 2.5 mg by HPLC method
[13] = Solubility of the compound in EAC-EG solvent at 37 degC measured after 24 hrs by HPLC analysis
[14] = Solubility of the compound in ChCl-EG solvent at 37 degC measured after 24 hrs by HPLC analysis
[15] = Solubility of the compound in ChCl-P solvent at HBA:HBD 1:3 molar ratio and 37 degC measured after 24 hrs by HPLC analysis
[16] = Solubility of the compound in ChCl-LA1 solvent at HBA:HBD 1:4 molar ratio and 37 degC measured after 24 hrs by HPLC analysis
[17] = Solubility of the compound in water at 37 degC measured after 24 hrs by HPLC analysis; conditions: for solubility at 24 h: water
[18] = Half life of the compound at optimal pH
[19] = Solubility of the compound in ChCl-U solvent at 37 degC measured after 24 hrs by HPLC analysis
[20] = Solubility of the compound in ChCl-LA1 solvent at HBA:HBD 1:5 molar ratio and 37 degC measured after 24 hrs by HPLC analysis
[21] = Solubility of the compound in ChCl-P solvent at HBA:HBD 1:5 molar ratio and 37 degC measured after 24 hrs by HPLC analysis
[22] = Solubility of the compound in TPAB-LA1 solvent at 37 degC measured after 24 hrs by HPLC analysis
[23] = Solubility of the compound in ChCl-G solvent at 37 degC measured after 24 hrs by HPLC analysis
[24] = Solubility of the compound in EAC-LA2 solvent at 37 degC measured after 24 hrs by HPLC analysis
[25] = Solubility of the compound in ChCl-OA solvent at 37 degC measured after 24 hrs by HPLC analysis
[26] = Solubility of the compound in TPAB-P solvent at 37 degC measured after 24 hrs by HPLC analysis
[27] = Solubility of the compound in BE-LA1 solvent at 37 degC measured after 24 hrs by HPLC analysis
[28] = Ratio of half life of compound in ChCl-P solvent to half life of compound in water; conditions: buffer
[29] = Solubility of the compound in ChBt-LA1 solvent at 37 degC measured after 24 hrs by HPLC analysis
[30] = Solubility of the compound in ChCl-GA2 solvent at 37 degC measured after 24 hrs by HPLC analysis
[31] = Solubility of the compound in EAC-P solvent at 37 degC measured after 24 hrs by HPLC analysis

In the case of `CC(=O)Oc1ccccc1C(=O)O` [ASPIRIN], the solubility [1] is reported as 179.2 mg/mL, the solubility [2] is reported as 113.1 mg/mL and the half-life [3] is reported as 17.5 h. For the same compound, the solubility [4] was 76.28 mg/mL (≈ 423 mM), the solubility [5] was 91.3 mg/mL (≈ 507 mM) and the solubility [6] was 135 mg/mL (≈ 749 mM). It also gave a solubility [7] of 134.3 mg/mL (≈ 745 mM), a solubility [8] of 135 mg/mL and a solubility [9] of 95.63 mg/mL (≈ 531 mM). The solubility [10] was 126.3 mg/mL (≈ 701 mM), the solubility [11] was 202 mg/mL and the half-life [12] was 2.13 h. The solubility [13] was 56.84 mg/mL (≈ 315 mM), the solubility [14] was 139 mg/mL (≈ 772 mM) and the solubility [15] was 184.6 mg/mL. For the same compound, the solubility [16] was 109.9 mg/mL, the solubility ([17]; buffer, 24 h) was 3.3 mg/mL (≈ 18.3 mM) and the half-life [18] was < 336 h. It also gave a solubility [19] of 147.9 mg/mL (≈ 821 mM), a solubility [20] of 104.4 mg/mL and a solubility [21] of 168.7 mg/mL. For the same compound, the solubility [22] was 163.7 mg/mL (≈ 909 mM), the solubility [23] was 42.48 mg/mL (≈ 236 mM) and the solubility [24] was 44.57 mg/mL (≈ 247 mM). For the same compound, the solubility [25] was 86.32 mg/mL (≈ 479 mM), the solubility [26] was 220.2 mg/mL (≈ 1220 mM) and the solubility [27] was 149.8 mg/mL (≈ 831 mM). It also gave a Ratio [28] of 8.2, a solubility [29] of 37.06 mg/mL (≈ 206 mM) and a solubility [30] of 67.43 mg/mL (≈ 374 mM). It also gave a solubility [31] of 82.18 mg/mL (≈ 456 mM).

`CC(C)Cc1ccc(C(C)C(=O)O)cc1` (stereo unspecified) [IBUPROFEN] showed a solubility [1] of 226.1 mg/mL, a solubility [4] of 25.38 mg/mL (≈ 123 mM) and a solubility [5] of 17.95 mg/mL (≈ 87 mM). For the same compound, the solubility [6] was 78.69 mg/mL (≈ 381 mM), the solubility [7] was 380 mg/mL (≈ 1840 mM) and the solubility [9] was 159.4 mg/mL (≈ 773 mM). For the same compound, the solubility [10] was 25.87 mg/mL (≈ 125 mM), the solubility [11] was 183.3 mg/mL and the solubility [13] was 21.42 mg/mL (≈ 104 mM). The solubility [14] was 24.29 mg/mL (≈ 118 mM), the solubility [15] was 191.7 mg/mL and the solubility at 24 h [17] was 0.07 mg/mL (≈ 0.339 mM). For the same compound, the solubility [19] was 4.5 mg/mL (≈ 21.8 mM), the solubility [21] was 267.6 mg/mL and the solubility [22] was 194.8 mg/mL (≈ 944 mM). For the same compound, the solubility [23] was 3.82 mg/mL (≈ 18.5 mM), the solubility [24] was 20.67 mg/mL (≈ 100 mM) and the solubility [25] was 31.51 mg/mL (≈ 153 mM). The solubility [26] was 383.4 mg/mL (≈ 1860 mM), the solubility [27] was 280.2 mg/mL (≈ 1360 mM) and the solubility [29] was 35.05 mg/mL (≈ 170 mM). For the same compound, the solubility [30] was 9.49 mg/mL (≈ 46 mM) and the solubility [31] was 141.6 mg/mL (≈ 686 mM).

For `CC(=O)Nc1ccc(O)cc1` [ACETAMINOPHEN], the solubility [1] was 267.9 mg/mL, the solubility [2] was 217.4 mg/mL and the solubility [4] was 238.1 mg/mL (≈ 1580 mM). For the same compound, the solubility [5] was 254 mg/mL (≈ 1680 mM), the solubility [6] was 279 mg/mL (≈ 1850 mM) and the solubility [7] was 235.1 mg/mL (≈ 1560 mM). For the same compound, the solubility [8] was 279 mg/mL, the solubility [9] was 144.5 mg/mL (≈ 956 mM) and the solubility [10] was 266.3 mg/mL (≈ 1760 mM). The solubility [11] was 324 mg/mL, the solubility [13] was 173.9 mg/mL (≈ 1150 mM) and the solubility [14] was 287 mg/mL (≈ 1900 mM). The solubility [15] was 324 mg/mL, the solubility [16] was 208.4 mg/mL and the solubility at 24 h [17] was 19.9 mg/mL (≈ 132 mM). It also gave a solubility [19] of 169.7 mg/mL (≈ 1120 mM), a solubility [20] of 199.8 mg/mL and a solubility [21] of 246.2 mg/mL. The solubility [22] was 316.5 mg/mL (≈ 2090 mM), the solubility [23] was 140.3 mg/mL (≈ 928 mM) and the solubility [24] was 141.2 mg/mL (≈ 934 mM). It also gave a solubility [25] of 186.7 mg/mL (≈ 1240 mM), a solubility [26] of 352.7 mg/mL (≈ 2330 mM) and a solubility [27] of 212.1 mg/mL (≈ 1400 mM). It also gave a solubility [29] of 89.07 mg/mL (≈ 589 mM), a solubility [30] of 224.8 mg/mL (≈ 1490 mM) and a solubility [31] of 188.6 mg/mL (≈ 1250 mM).
